Test results as given in publication PMC12799421, “Inhibition of constitutive activity of the atypical chemokine receptor 3 by the small-molecule inverse agonist VUF16840” (Molecular Pharmacology, 2025).

How the values were obtained:
ACKR3 [1] = molecular target: T1, ACKR3 (Homo sapiens, UniProt P25106); assay: BRET β-arrestin1 recruitment to ACKR3 in HEK293T cells; format: cell-based; conditions: for EC50: * VUF16840 as inverse agonist, read-out: β-arrestin1 BRET pEC50 (converted); for IC50: read-out: β-arrestin1 BRET, Inhibition by VUF16840 (pIC50) (converted)
T1 construct: expressed in transfected cells; host or cells: HEK293T
Experimental: (§1) For bioluminescence resonance energy transfer (BRET) experiments, several BRET acceptor constructs were used that consist of the pcDEF3 vector with either GRK2 (NCBI: NM_174710.2), β-arrestin1 (NCBI: NM_174243.3), or β-arrestin2 (NCBI: XM_005220181.4) fused at the C-terminus with a SpeI/NotI linker to mVenus (NCBI: KP666136.1), as previously described.[34]
(§2) For 1·10^6 HEK293T cells, a transfection mix consisting of 2 μg plasmid DNA, 12 μg linear PEI in a total volume of 200 μL 150 mM NaCl was made and thoroughly vortexed. The transfection mix was incubated for 15 minutes and consequently added to a cell suspension with a final concentration of 3·10^5 cells/mL. For functional studies this cell suspension was immediately transferred to a poly-L-lysine-coated white 96-well plate, with 3·10^4 cells per well. […] For BRET-based membrane localization experiments, the 2 μg plasmid DNA consisted of ACKR3-NL (0.05 μg), mVenus-CAAX (0.25 μg), and pcDEF3 vector DNA without insert (1.7 μg).
Mean pIC50 values were determined by averaging fitted values from individual experiments. Graphs depict the pooled data of all experiments. Similarly, sigmoidal, ligand-induced concentration-dependent activation or inhibition of the proximity between ACKR3 and the protein of interest was analyzed using GraphPad Prism 8, by fitting a 3-parameter concentration-response model to the data, to determine pEC50/pIC50 values. Mean pEC50 values and pIC50 values were determined by averaging fitted values from individual experiments. Graphs depict the pooled data of all experiments, for which values are normalized, per experiment, to the fold difference compared with basal signal.
HEK293T cells were stimulated with increasing concentrations of VUF15485 or VUF16840 only (A–D), or increasing concentrations of VUF16840 in the presence of 100 nM VUF15485 (E–H). The resulting proximity between ACKR3 and β-arrestin1 (A, E), GRK2 (B, F), or Rab5a (C, G) was determined by bioluminescence resonance energy transfer. Furthermore, an interaction between clathrin A and β-arrestin2 was measured by NLuc complementation, as was determined by quantifying the relative light units (D, H). Depicted data is normalized as fold-basal and represents the mean ± SD of N experiments with triplicate measurements per experiment. N is specified in Supplemental Table 1.

ACKR3 [2] = molecular target: T1, ACKR3; assay: BRET GRK2 recruitment to ACKR3 in HEK293T cells; format: cell-based; conditions: for EC50: * VUF16840 as inverse agonist, read-out: GRK2 BRET pEC50 (converted)
Experimental: as §1, §2
The sigmoidal concentration-dependent displacement of binding of the probes [^3H]VUF15485 and CXCL12-A647 by unlabeled ligands were analyzed using GraphPad Prism 8, by fitting a one-site binding model to the data, to determine the pIC50. Mean pIC50 values were determined by averaging fitted values from individual experiments. Graphs depict the pooled data of all experiments. Similarly, sigmoidal, ligand-induced concentration-dependent activation or inhibition of the proximity between ACKR3 and the protein of interest was analyzed using GraphPad Prism 8, by fitting a 3-parameter concentration-response model to the data, to determine pEC50/pIC50 values. Mean pEC50 values and pIC50 values were determined by averaging fitted values from individual experiments. […]
Fig. 5 Inhibition of both constitutive as well as agonist-induced ACKR3 activity by VUF16840. […] The resulting proximity between ACKR3 and β-arrestin1 (A, E), GRK2 (B, F), or Rab5a (C, G) was determined by bioluminescence resonance energy transfer. […]

NLuc-hACKR3 = molecular target: T2, NLuc-hACKR3 (Homo sapiens, UniProt P25106); assay: NanoBRET ligand binding assay (CXCL12-AF647 displacement); conditions: 0.3 nM CXCL12-AF647, HEK293T membranes; read-out: IC50, displacement of CXCL12-A647 binding to NLuc-hACKR3
T2 construct: expressed in transfected cells; host or cells: HEK293T (membranes, transient expression)
Experimental: Membranes of HEK293T cells that transiently expressed the NLuc-hACKR3 or HA-hACKR3 were produced as previously described.[23] Briefly, 2 million HEK293T cells were seeded per […] and were transfected the following day using a DNA/PEI-mix containing 0.25 μg plasmid DNA encoding for the ACKR3, 4.75 μg pcDEF3 plasmid DNA and 30 μg linear PEI. Two days after transfection, cells were collected in PBS (137 mM NaCl, 2.57 mM KCl, 1.5 mM KH2PO4, 8 mM Na2HPO4) and pelleted by centrifugation. Cell pellets were resuspended in ice-cold membrane buffer (15 mM Tris, 0.3 mM EDTA, 2 mM MgCl2, pH 7.4 at 4 °C) and dounce-homogenized on ice by plunging the pestle 10 times with 1500 rpm. […]
All dilutions were prepared in HBSS supplemented with 0.2% BSA. […] Total light intensity was measured at 460 nm wavelength with 80 nm bandwidth and separately for wavelengths ≥610 nm using the PHERAstar-FSX (BMG Labtech) with a dual emission filter. […]
The sigmoidal concentration-dependent displacement of binding of the probes [^3H]VUF15485 and CXCL12-A647 by unlabeled ligands were analyzed using GraphPad Prism 8, by fitting a one-site binding model to the data, to determine the pIC50. Mean pIC50 values were determined by averaging fitted values from individual experiments. […] Mean pEC50 values and pIC50 values were determined by averaging fitted values from individual experiments. […]

T1 sequence (P25106 whole entry): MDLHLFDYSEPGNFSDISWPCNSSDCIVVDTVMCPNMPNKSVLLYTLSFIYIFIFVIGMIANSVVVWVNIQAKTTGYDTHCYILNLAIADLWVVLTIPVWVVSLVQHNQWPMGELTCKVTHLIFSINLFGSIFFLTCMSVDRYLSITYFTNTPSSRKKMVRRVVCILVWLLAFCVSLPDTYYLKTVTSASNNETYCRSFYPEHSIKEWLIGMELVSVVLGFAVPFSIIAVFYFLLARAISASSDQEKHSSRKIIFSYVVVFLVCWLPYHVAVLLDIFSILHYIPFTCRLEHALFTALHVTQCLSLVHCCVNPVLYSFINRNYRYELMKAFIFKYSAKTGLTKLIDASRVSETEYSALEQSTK
T2 sequence (P25106 whole entry): as above

| Compound | EC50 (ACKR3 [1]) | EC50 (ACKR3 [2]) | IC50 (NLuc-hACKR3) | IC50 (ACKR3 [1]; versus 100 nM CXCL11) | IC50 (ACKR3 [1]; versus 100 nM CXCL12) | IC50 (ACKR3 [1]; versus 100 nM VUF15485) | IC50 (ACKR3 [2]; versus 100 nM VUF15485, read-out: GRK2 BRET, Inhibition by VUF16840 (pIC50) (converted)) |
| --- | --- | --- | --- | --- | --- | --- | --- |
| COc1cc(C(=O)N(CCC2CCCN2C)CC(C)=Cc2ccccc2F)cc(OC)c1OC (stereo not shown) [VUF15485, reference compound] | 39.8 nM | 25.1 nM | 28 nM |  |  |  |  |
| COc1ccccc1CCNC(=O)C1CN(C2CCCCC2)CCC1NC(=O)c1cc(-c2ccc(F)cc2F)on1 (stereo not shown) [VUF16840] | 5.01 nM | 3.16 nM | 7 nM | 2.51 nM | 5.01 nM | 2 nM | 3.98 nM |
